Patent US10906904B2, “ADO-resistant cysteamine analogs and uses thereof” (HORIZON ORPHAN LLC, priority 2015, dated 2021)
Like-named read-outs stand apart in the source and are kept apart here.

Key:
Cystine reactivity assay [1] = settings: Table 4
human recombinant ADO = molecular target: T1, human recombinant ADO (Homo sapiens, UniProt Q96SZ5); type: in vitro ADME
T1 sequence (Q96SZ5 1-270): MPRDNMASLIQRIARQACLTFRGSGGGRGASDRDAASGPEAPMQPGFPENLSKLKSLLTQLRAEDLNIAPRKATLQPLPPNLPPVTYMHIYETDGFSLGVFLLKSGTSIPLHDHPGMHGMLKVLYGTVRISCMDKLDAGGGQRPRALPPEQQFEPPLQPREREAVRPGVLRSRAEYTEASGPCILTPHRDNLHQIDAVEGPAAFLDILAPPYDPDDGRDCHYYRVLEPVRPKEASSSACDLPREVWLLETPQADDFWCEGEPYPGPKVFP
Experimental: The rate of ADO metabolism was determined by incubating 15 mM test compound with 60 μg/ml human recombinant ADO and 20 nM MitoXpress® O2-sensitive fluorescent probe (Luxcel) at 37° C. in assay buffer/salt in a sealed assay chamber. The initial rate of fluorescence (excitation λ380 nm and emission λ650 nm) increase was used to measure ADO-dependent oxygen depletion activity. The ability of ADO to metabolize compounds and concomitantly consume oxygen was expressed relative to that of 15 mM cysteamine.

St-HdhQ^111/111 cells = assay: Glutamate-induced neuronal excitotoxicity assay; type: cell-based; settings: 6 mM L-glutamate 24 hours, % of effect of 100 μM cysteamine; for viability at 10 µM / viability at 100 µM: STHdhQ111; for viability at 10 µM: read-out: HdhQ^111/111 cell % survival (mean ± STD) Test Conc. 10 μM; for viability at 100 µM: read-out: HdhQ^111/111 cell % survival (mean ± STD) Test Conc. 100 μM
Experimental: The ability of test compounds to inhibit glutamate-induced excitotoxicity (neuroprotection) in St-HdhQ^111/111 cells was determined by incubating compounds with cells for 60 min at 33° C., 95% (v:v) air/5% (v:v) CO2 in Dulbecco's Modified Eagle Media. Following this, excitotoxicity was induced by the addition of 6 mM L-glutamate for 24 hours. Cell viability was assessed by measuring ATP levels using a luminescent-based CellTitre Glo assay (Promega). Compound neuroprotection (% cell survival) was expressed as a % of the effect recorded with 100 μM cysteamine (denoted as 100% cell survival).

Cystine reactivity assay [2] = settings: 30° C., percentage of 3 mM cysteamine
Experimental: Cystine reactivity was assessed by incubating 3 mM test compound with 100 nM BODIPY® FL L-Cystine (Life Tech.) at 30° C., pH 7.4 in phosphate buffer. […] Compound cystine reactivity was expressed as a percentage of that of 3 mM cysteamine.
Under resting conditions, the inherent fluorescence of BODIPY® FL L-cystine was very low due to the spatial proximity of the two BODIPY molecules causing quenching. Under chemical reaction (disruption of the S—S bond), the spatial distance was increased, the quenching lost, and measured fluorescence increased. Time (minutes) vs. fluorescence (relative fluorescence units—RFU) was plotted and linear regression analysis was performed to generate a slope value corresponding to the reaction rate in RFU/min and an R2 value.

[3] = test system: cystinotic human fibroblasts; assay: Cystine depletion assay; type: cell-based; settings: relative to cystine depletion by cysteamine (100%) at a similar concentration; for Emax: Homo sapiens, Fibroblast, 1 h
Experimental: The ability of test compounds to deplete cystine from cystinotic human fibroblasts (Coriell) was determined by incubating compounds with cells for 60 min at 37° C., 95% (v/v) air/5% (v/v) CO2 in Minimal Essential Media Eagle. Treated cell samples were subsequently harvested, then homogenized to ensure plasma and lysosomal membrane disruption. Protein was removed by acid precipitation and cystine in the supernatant measured using LC-MS/MS and HILIC chromatography. Protein levels were determined and cystine levels reported as nM per mg/ml protein. Cystine levels after test compound treatment were expressed as a percentage of that of untreated control cells.
Compounds were assayed at a concentration of 50 μM or 100 μM according to the general methods described above.
Cystine depletion levels for the compounds are expressed in Table 4 as a percent relative to the cystine depletion achieved by cysteamine (c.f. cysteamine 100%) at a similar concentration.
Cystine depletion levels for each of the compounds in Table 5 are expressed as a percent relative to the cystine depletion achieved by cysteamine (c.f. cysteamine 100%) at a similar concentration.

[4] = Dimethyl sulfide (DMS) detection in rat whole blood following oral compound administration; type: in vivo; settings: rat, in vivo, po, 150 mg/kg
Experimental: Male Sprague Dawley (SD) rats (200-250 g) were housed in cages under a 12 hour light/dark cycle with free access to food and water. Temperature and humidity were controlled according to UK Home Office regulations. For oral (po) administration, test compounds were formulated in water at a concentration of 30 mg/mL, to provide a dose of 150 mg/kg when administered orally in a 5 mL/kg dosing volume. Following compound or water (vehicle) administration to rats (n=15 per compound), terminal blood samples (>5 mL) were taken by cardiac puncture under CO2 at defined time-points post oral dosing (pre-dose, 0.25 hour, 0.5 hour, 1 hour and 2 hour). Blood was placed in sealed heparinized Eppendorf tubes on wet ice and stored at 4° C. prior to analyzing DMS levels by gas chromatography (GC).
For each sample of rat blood, 1 mL was added to an evacuated 20 mL GC-Headspace vial containing tetrahydrofuran (THF) internal standard. Headspace vials were sealed with a crimp cap and septum (to prevent the vaporization of volatile sulfur compounds into the open air) and thoroughly vortex mixed. All samples were processed using gas chromatography to measure DMS levels. In short, sulfur containing compounds were thermally liberated into the gas carrier stream and injected (1 μL) into the gas chromatography column (30 m×0.32 mm DB-624 1.8 μm). Under these conditions, the retention time for dimethyl sulfide (DMS) and THF internal standard were approximately 1.83 minutes and 3.82 minutes respectively.
For each analyzed blood sample, the ratio of DMS peak area to THF peak area was calculated. For the DMS calibration curve and assay linearity checks, this ratio was graphically plotted against the concentration of reference DMS standards (blank, 60 nM, 180 nM, 360 nM, 600 nM, 1200 nM, 1800 nM and 3000 nM). The concentration of DMS in each blood sample was calculated from the equation produced by this plot by linear regression analysis. […].

[5] = Table 4, read-out: Cystine Depletion (%)
[6] = Table 5, read-out: Cystine Depletion (%) Mean Value

| Compound | ADO Metabolism Assay (%) Mean Value (human recombinant ADO; human, 15 mM) | viability at 10 µM (St-HdhQ^111/111 cells; 10 μM) | viability at 100 µM (St-HdhQ^111/111 cells; 100 μM) | Cystine Reactivity Assay (30° C.) (%) Mean Value (Cystine reactivity assay [2]; Table 4) | Cystine Reactivity Assay (30° C.) (%) Mean Value (Cystine reactivity assay [2]; Table 5) | Emax [3, 5] | Emax [3, 6] | other results |
| --- | --- | --- | --- | --- | --- | --- | --- | --- |
| CC(S)CN (stereo not shown) [Compound 17330] |  |  |  |  |  |  |  | Cystine Reactivity Assay (RT) (RFU) Mean Value (Cystine reactivity assay [1]): 4000-9000 RFU |
| CC1(S)CCCNC1 (stereo not shown) [Compound 42388] | <25% | 5 ± 6% | 91 ± 5% | >90% | >90% | 97% | 63% |  |
| SCC1CCNCC1 [Compound 145586] | <25% | 9 ± 6% | 89 ± 9% |  | 50-90% |  | 21% |  |
| SC[C@H]1CCCN1 [Compound 42211] | <25% | 2 ± 9% | 84 ± 19% | >90% |  | 79% |  |  |
| SC1CC2CCC(C1)N2 (stereo not shown) [Compound 42494] | <25% | 0% | 28 ± 17% | 59-90% |  | 88% |  |  |
| SCC1CCCNC1 (stereo not shown) [Compound 145588] | <25% | 9 ± 9% | 98 ± 5% |  | >90% |  | 31% |  |
| CC(N)CS (stereo not shown) [Compound 17515] |  |  |  |  |  |  |  | Cystine Reactivity Assay (RT) (RFU) Mean Value (Cystine reactivity assay [1]): 4000-9000 RFU; Cystine Depletion (%) ([3]; Table 4): 97% |
| SC1CCNCC1 [Compound 41188] | <25% | 20 ± 6% | 105 ± 11% | 59-90% |  | 87% |  | Mean DMS levels (nM) ± STD, Time 1 hr ([4]; male, Sprague Dawley, 1 h): <60 nM; Mean DMS levels (nM) ± STD, Time 2 hr ([4]; male, Sprague Dawley, 2 h): <60 nM |
| SCCN1CCCC1 [Compound 17518] |  |  |  |  |  | 99% |  | ADO Metabolism Assay (%) Mean Value (human recombinant ADO; Table 4, relative to 15 mM cysteamine): <25%; Cystine Reactivity Assay (RT) (RFU) Mean Value (Cystine reactivity assay [1]): >9000 RFU |
| SC1CNC1 [Compound 41446] |  |  |  |  | >90% |  |  | HdhQ^111/111 cell % survival (mean ± STD) Test Conc. 10 μM (St-HdhQ^111/111 cells; 10 μM): 6 ± 9%; HdhQ^111/111 cell % survival (mean ± STD) Test Conc. 100 μM (St-HdhQ^111/111 cells; 100 μM): 101 ± 11%; Cystine Depletion (%) ([3]; Table 4): 82%; Cystine Depletion (%) Mean Value ([3]; Table 5): 82%; Mean DMS levels (nM) ± STD, Time 1 hr [4]: <60 nM; Mean DMS levels (nM) ± STD, Time 2 hr [4]: <60 nM |
| NCCCS [Compound 17329] |  |  |  |  |  |  |  | Cystine Reactivity Assay (RT) (RFU) Mean Value (Cystine reactivity assay [1]): <4000 RFU; Cystine Depletion (%) ([3]; Table 4): 36% |

Further lines, with some results ahead:

| ADO Metabolism Assay (%) Mean Value (human recombinant ADO; human, 15 mM) | Compound | viability at 10 µM (St-HdhQ^111/111 cells; 10 μM) | viability at 100 µM (St-HdhQ^111/111 cells; 100 μM) | Cystine Reactivity Assay (30° C.) (%) Mean Value (Cystine reactivity assay [2]; Table 4) | Cystine Reactivity Assay (30° C.) (%) Mean Value (Cystine reactivity assay [2]; Table 5) | Emax [3, 5] | Emax [3, 6] | other results |
| --- | --- | --- | --- | --- | --- | --- | --- | --- |
| <25% | CCN1CCCC1 [Compound 145611] | 24 ± 13% | 94 ± 8% |  | <50% |  | 9% |  |
| <25% | SC[C@H]1CCCCN1 [Compound 145590] | 14 ± 7% | 90 ± 11% |  | >90% |  | 104% |  |
| <25% | CC(=O)NCCS [Compound 17287] |  |  |  |  |  |  | Cystine Reactivity Assay (RT) (RFU) Mean Value (Cystine reactivity assay [1]): <4000 RFU |
| <25% | CS(=O)(=O)N1CCNC(CS)C1 (stereo not shown) [Compound 145694] | 2 ± 10% | 15 ± 15% |  | >90% |  | 0% |  |
| <25% | N[C@H]1C[C@@H](CS)C1 [Compound 145587] | 52 ± 9% | 97 ± 7% |  | >90% |  | 13% |  |
| <25% | S[C@H]1CCNC1 [Compound 42616] | 5 ± 7% | 56 ± 7% | 59-90% |  | 79% |  |  |
| <25% | S[C@@H]1CCNC1 [Compound 42617] | 7 ± 10% | 89 ± 7% | 59-90% |  | 101% |  |  |
| <25% | CCOC(=O)C1(S)CCCNC1 (stereo not shown) [Compound 42493] | 6 ± 10% | 87 ± 10% | 50-90% |  | 74% |  |  |
| <25% | N[C@H]1C[C@H](S)C1 [Compound 42460] | 3 ± 5% | 95 ± 9% | 59-90% |  | 111% |  |  |
| <25% | CC1(S)CCNCC1 [Compound 42341] | 1 ± 10% | 55 ± 21% | <50% | <50% | 81% | 83% | Mean DMS levels (nM) ± STD, Time 0.5 hr ([4]; male, Sprague Dawley, 0.5 h): <60 nM; Mean DMS levels (nM) ± STD, Time 1 hr ([4]; male, Sprague Dawley, 1 h): <60 nM; Mean DMS levels (nM) ± STD, Time 2 hr ([4]; male, Sprague Dawley, 2 h): <60 nM |
| <25% | S[C@@H]1CCCNC1 [Compound 42248] | 2 ± 7% | 81 ± 6% | >90% |  | 103% |  |  |
| <25% | SC[C@@H]1CCCN1 (stereo in doubt) [Compound 42210] | 7 ± 6% | 105 ± 8% | >90% | >90% | 87% | 89% | Mean DMS levels (nM) ± STD, Time 1 hr ([4]; male, Sprague Dawley, 1 h): <60 nM; Mean DMS levels (nM) ± STD, Time 2 hr ([4]; male, Sprague Dawley, 2 h): <60 nM |
